Experiments:
PglH [1] = molecular target: T1, PglH (Campylobacter jejuni, UniProt Q0P9C5); assay: ([…] Å); IC50 with purified PglH; assay type: biochemical
T1 construct: PglH with C-terminal His10 tag

PglH [2] = molecular target: T1, PglH; assay: crystal structure of ternary complex with synthetic LLO ([…] Å); IC50 with purified PglH; assay type: biochemical

T1 sequence (Q0P9C5 whole entry): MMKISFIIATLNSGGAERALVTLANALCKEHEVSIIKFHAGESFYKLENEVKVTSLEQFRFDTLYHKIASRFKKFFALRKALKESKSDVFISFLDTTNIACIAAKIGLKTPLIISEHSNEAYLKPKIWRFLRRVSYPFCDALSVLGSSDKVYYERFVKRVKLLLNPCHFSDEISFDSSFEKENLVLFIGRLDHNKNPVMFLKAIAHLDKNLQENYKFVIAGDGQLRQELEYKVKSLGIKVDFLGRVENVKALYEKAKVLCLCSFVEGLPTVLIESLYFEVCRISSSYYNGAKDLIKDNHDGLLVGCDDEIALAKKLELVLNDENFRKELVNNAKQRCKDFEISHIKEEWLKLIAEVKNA

In the case of `CC(=O)N[C@@H]1[C@@H](O)[C@@H](O)[C@@H](CO)O[C@@H]1CP(=O)(O)OP(=O)(O)OC[C@@H]1O[C@@H](n2ccc(=O)[nH]c2=O)[C@H](O)[C@@H]1O` [UDP-CH2-GalNAc], the IC50 (PglH [1]) is reported as 303 ± 24 µM.

With `O=c1ccn([C@@H]2O[C@H](COP(=O)(O)OP(=O)(O)O)[C@@H](O)[C@H]2O)c(=O)[nH]1` [UDP] the IC50 (PglH [2]) was 1020 ± 87 µM.
